US4743677A, “Calcitonin gene related peptide derivatives” (Toyo Jozo Co., Ltd., priority 1985, dated 1988)

What was measured:
[1] = Isoelectric point (pI) of the purified peptide; type: physicochemical; conditions: purified product
[2] = Serum phosphorus level lowering effect in rats (method of Goldenberg et al.); type: in vivo; conditions: 80 μg/kg through tail vein, Wistar rats; for drop of serum phosphorus concentration compared with control group: blood at 30 and 60 minutes, control = dissolving solution only; for serum phosphorus concentration compared with h-CGRP administered group: versus h-CGRP 80 μg/kg
Description: (§1) h-CGRP, desalanyl-deamino-h-CGRP and desalanyl-[Asu^2,7 ] -h-CGRP, each 80 μg, were dissolved in 1 ml of a citrate buffer (pH 6.5) containing 0.1% of bovine serum albumin (hereinafter called "dissolving solution") and then administered to a group of 5-6 Wistar rats (80-90 g) at 80 μg/kg through their tail veins. Upon elapsed time of 30 minutes and 60 minutes, blood samples were collected from their abdominal descending aortas. The serum calcium concentrations were measured by atomic absorption spectrophotometry while the serum phosphorus concentrations were determined the method proposed by Goldenberg et al. [Clin Chem., 12, 871-882 (1966)] .

[3] = Serum calcium level lowering effect in rats (atomic absorption spectrophotometry); type: in vivo; conditions: 80 μg/kg through tail vein, Wistar rats; for drop of serum calcium concentration compared with control group: blood at 30 and 60 minutes, control = dissolving solution only; for serum calcium concentration compared with h-CGRP administered group: versus h-CGRP 80 μg/kg
Description: as §1

[4] = Stability in an aqueous solution; type: physicochemical

SMILES	pI [1]	drop of serum phosphorus concentration compared with control group [2]	serum phosphorus concentration compared with h-CGRP administered group [2]	drop of serum calcium concentration compared with control group [3]	serum calcium concentration compared with h-CGRP administered group [3]	stability in an aqueous solution [4]	activity exhibiting time (serum phosphorus lowering) compared with h-CGRP ([2]; 30 and 60 minutes)	activity exhibiting time (serum calcium lowering) compared with h-CGRP ([3]; 30 and 60 minutes)
CC(C)C[C@H](NC(=O)CNC(=O)[C@H](C)NC(=O)[C@H](CC(C)C)NC(=O)[C@H](CCCNC(=N)N)NC(=O)[C@H](Cc1c[nH]cn1)NC(=O)[C@@H](NC(=O)[C@@H](NC(=O)[C@@H]1CCCCCC(=O)N[C@@H](CC(=O)O)C(=O)N[C@@H]([C@@H](C)O)C(=O)N[C@@H](C)C(=O)N[C@@H]([C@@H](C)O)C(=O)N1)C(C)C)[C@@H](C)O)C(=O)N[C@@H](CC(C)C)C(=O)N[C@@H](CO)C(=O)N[C@@H](CCCNC(=N)N)C(=O)N[C@@H](CO)C(=O)NCC(=O)NCC(=O)N[C@H](C(=O)N[C@H](C(=O)N[C@@H](CCCCN)C(=O)N[C@@H](CC(N)=O)C(=O)N[C@@H](CC(N)=O)C(=O)N[C@@H](Cc1ccccc1)C(=O)N[C@H](C(=O)N1CCC[C@H]1C(=O)N[C@H](C(=O)N[C@@H](CC(N)=O)C(=O)N[C@H](C(=O)NCC(=O)N[C@@H](CO)C(=O)N[C@@H](CCCCN)C(=O)N[C@@H](C)C(=O)N[C@@H](Cc1ccccc1)C(N)=O)C(C)C)[C@@H](C)O)C(C)C)C(C)C)C(C)C [desalanyl-[Asu^2,7]-h-CGRP]	≥ 10.25	about 20%	dropped with significance	about 20%	dropped with significance	extremely good stability	–	–
CC(C)C[C@H](NC(=O)CNC(=O)[C@H](C)NC(=O)[C@H](CC(C)C)NC(=O)[C@H](CCCNC(=N)N)NC(=O)[C@H](Cc1c[nH]cn1)NC(=O)[C@@H](NC(=O)[C@@H](NC(=O)[C@@H]1CSSCCC(=O)N[C@@H](CC(=O)O)C(=O)N[C@@H]([C@@H](C)O)C(=O)N[C@@H](C)C(=O)N[C@@H]([C@@H](C)O)C(=O)N1)C(C)C)[C@@H](C)O)C(=O)N[C@@H](CC(C)C)C(=O)N[C@@H](CO)C(=O)N[C@@H](CCCNC(=N)N)C(=O)N[C@@H](CO)C(=O)NCC(=O)NCC(=O)N[C@H](C(=O)N[C@H](C(=O)N[C@@H](CCCCN)C(=O)N[C@@H](CC(N)=O)C(=O)N[C@@H](CC(N)=O)C(=O)N[C@@H](Cc1ccccc1)C(=O)N[C@H](C(=O)N1CCC[C@H]1C(=O)N[C@H](C(=O)N[C@@H](CC(N)=O)C(=O)N[C@H](C(=O)NCC(=O)N[C@@H](CO)C(=O)N[C@@H](CCCCN)C(=O)N[C@@H](C)C(=O)N[C@@H](Cc1ccccc1)C(N)=O)C(C)C)[C@@H](C)O)C(C)C)C(C)C)C(C)C [desalanyl-deamino-h-CGRP]	≥ 10.25	about 20%	dropped with significance	about 20%	dropped with significance	–	prolonged	prolonged
